Earlier results in article PMC6311893, “Computational prediction of plasma protein binding of cyclic peptides from small molecule experimental data using sparse modeling techniques” (BMC Bioinformatics, 2018).
Where two headings read alike, the source gives them in different places.

Test system: plasma protein
Conditions: cited from earlier work
[1] = fraction bound to plasma protein, small molecule dataset, sheet 1-SM, ref Ingle et al.
[2] = fraction bound to plasma protein, small molecule dataset, sheet 1-SM (Set Dte = test, Dtr = training), ref Ingle et al.

Oc1ccc(C2CNCCc3c2cc(O)c(O)c3Cl)cc1 (stereo not drawn) [fenoldopam]
PPB (fb) [1]: 0.88

CC(C(=O)O)c1cccc(Oc2ccccc2)c1 (stereo not drawn) [fenoprofen]
PPB (fb) [1]: 0.99

CC(C)=CCC1C(=O)N(c2ccccc2)N(c2ccccc2)C1=O [feprazone]
PPB (fb) [1]: 0.95

COc1cc(/C=C/C(=O)O)ccc1O [ferulic acid]
PPB (fb) [1]: 0.73

O=C(OCC(O)CO)c1ccccc1Nc1ccnc2c(C(F)(F)F)cccc12 (stereo not drawn) [floctafenine]
PPB (fb) [1]: 0.85

CS(=O)(=O)c1ccc([C@@H](O)[C@@H](CF)NC(=O)C(Cl)Cl)cc1 [florfenicol]
PPB (fb) [1]: 0.12

C[C@]12CCC(=O)C=C1CC[C@H]1[C@@H]3CC[C@](O)(C(=O)CO)[C@@]3(C)C[C@H](O)[C@@]12F [fludrocortisone]
PPB (fb) [1]: 0.75

O=C(O)c1ccccc1Nc1cccc(C(F)(F)F)c1 [flufenamic acid]
PPB (fb) [1]: 0.9

Fc1ccc(C(c2ccc(F)cc2)N2CCN(C/C=C/c3ccccc3)CC2)cc1 [flunarizine]
PPB (fb) [1]: 0.95

CC1(C)O[C@@H]2C[C@H]3[C@@H]4C[C@H](F)C5=CC(=O)C=C[C@]5(C)[C@H]4[C@@H](O)C[C@]3(C)[C@]2(C(=O)CO)O1 [flunisolide]
PPB (fb) [2]: 0.5

C[C@@H]1C[C@H]2[C@@H]3C[C@H](F)C4=CC(=O)C=C[C@]4(C)[C@H]3[C@@H](O)C[C@]2(C)[C@H]1C(=O)CO [fluocortolone]
PPB (fb) [1]: 0.9

CNCCC(Oc1ccc(C(F)(F)F)cc1)c1ccccc1 (stereo not drawn) [fluoxetine]
PPB (fb) [1]: 0.95

OCCN1CCN(CCC=C2c3ccccc3Sc3ccc(C(F)(F)F)cc32)CC1 [flupenthixol]
PPB (fb) [1]: 0.95

OCCN1CCN(CCCN2c3ccccc3Sc3ccc(C(F)(F)F)cc32)CC1 [fluphenazine]
PPB (fb) [1]: 0.95

CC(C(=O)O)c1ccc(-c2ccccc2)c(F)c1 (stereo not drawn) [flurbiprofen]
PPB (fb) [1]: 0.99

CC(C)C(=O)Nc1ccc([N+](=O)[O-])c(C(F)(F)F)c1 [flutamide]
PPB (fb) [1]: 0.9

Cc1cn[nH]c1 [fomepizole]
PPB (fb) [1]: 0

C[C@]12CCC(=O)C(O)=C1CC[C@@H]1[C@@H]2CC[C@]2(C)C(=O)CC[C@@H]12 [formestane]
PPB (fb) (plasma): 0.84

COc1ccc(CC(C)NCC(O)c2ccc(O)c(NC=O)c2)cc1 (stereo not drawn) [formoterol]
PPB (fb) (plasma): 0.62

CCC(=O)O[C@@H](O[P@](=O)(CCCCc1ccccc1)CC(=O)N1C[C@H](C2CCCCC2)C[C@H]1C(=O)O)C(C)C [fosinopril]
PPB (fb) [1]: 0.95

O=C1NC(c2ccccc2)(c2ccccc2)C(=O)N1COP(=O)(O)O [fosphenytoin]
PPB (fb) [1]: 0.95

CC(=O)O[C@H]1C[C@@]2(C)[C@@H](C[C@@H](O)[C@H]3[C@@]4(C)CC[C@@H](O)[C@@H](C)[C@@H]4CC[C@@]32C)/C1=C(\CCC=C(C)C)C(=O)O [fusidic acid]
PPB (fb) [1]: 0.95

O=C(O)c1cc(O)c(O)c(O)c1 [gallic acid]
PPB (fb) (plasma): 0.32

COc1ccc(CCN(C)CCCC(C#N)(c2cc(OC)c(OC)c(OC)c2)C(C)C)cc1OC (stereo not drawn) [gallopamil]
PPB (fb) [1]: 0.9

Cc1ccc(S(=O)(=O)NC(=O)N[C@H]2[C@H]3CC[C@@](C)([C@H]2O)C3(C)C)cc1 [glibornuride]
PPB (fb) [1]: 0.95

Cc1ccc(S(=O)(=O)NC(=O)NN2CC3CCCC3C2)cc1 (stereo not drawn) [gliclazide]
PPB (fb) [1]: 0.91

COc1ccc2c(c1)C(=O)N(CCc1ccc(S(=O)(=O)NC(=O)NC3CCCCC3)cc1)C(=O)C2(C)C [gliquidone]
PPB (fb) [1]: 0.99

Cc1cc(C(=O)NCCc2ccc(S(=O)(=O)NC(=O)NN3CCCCCC3)cc2)no1 [glisoxepide]
PPB (fb) [1]: 0.93

CCC1(c2ccccc2)CCC(=O)NC1=O (stereo not drawn) [glutethimide]
PPB (fb) (plasma): 0.5

COCCOc1cnc(NS(=O)(=O)c2ccccc2)nc1 [glymidine]
PPB (fb) [1]: 0.8

CC(C)C[C@H](NC(=O)[C@@H](COC(C)(C)C)NC(=O)[C@H](Cc1ccc(O)cc1)NC(=O)[C@H](CO)NC(=O)[C@H](Cc1c[nH]c2ccccc12)NC(=O)[C@H](Cc1cnc[nH]1)NC(=O)[C@@H]1CCC(=O)N1)C(=O)N[C@@H](CCCNC(=N)N)C(=O)N1CCC[C@H]1C(=O)NNC(N)=O [goserelin]
PPB (fb) (human, plasma): 0.2

COC1=CC(=O)C[C@@H](C)[C@]12Oc1c(Cl)c(OC)cc(OC)c1C2=O [griseofulvin]
PPB (fb) [1]: 0.8

CC/C=C/C/C=C/C/C=C/C/C=C/C=C/C(O)CCCC(=O)O (stereo not drawn) [hepe]
PPB (fb) [1]: 0.99

NS(=O)(=O)c1cc2c(cc1C(F)(F)F)NCNS2(=O)=O [hydroflumethiazide]
PPB (fb) [1]: 0.75

CC(C)(O)C(=O)Nc1ccc([N+](=O)[O-])c(C(F)(F)F)c1 [hydroxyflutamide]
PPB (fb) [1]: 0.93

C=C(Br)CC1(C(C)C)C(=O)NC(=O)NC1=O [ibomal]
PPB (fb) (plasma): 0.34

COc1cc(Cc2cnc(N)nc2N)c2c(c1OC)OC(C1CC1)C=C2 (stereo not drawn) [iclaprim]
PPB (fb) [1]: 0.93

COC1=C(OC)C(=O)C(CCCCCCCCCCO)=C(C)C1=O [idebenone]
PPB (fb) [1]: 0.9

CCOC(=O)[C@H](CCc1ccccc1)N[C@@H](C)C(=O)N1C(=O)N(C)C[C@H]1C(=O)O [imidapril]
PPB (fb) [1]: 0.2

CC1Cc2ccccc2N1NC(=O)c1ccc(Cl)c(S(N)(=O)=O)c1 (stereo not drawn) [indapamide]
PPB (fb) [1]: 0.76

C1=Cc2cccc(OCC3CNCCO3)c2C1 (stereo not drawn) [indeloxazine]
PPB (fb) [1]: 0.94

NS(=O)(=O)c1ccc(S(=O)(=O)Nc2cccc3c(Cl)c[nH]c23)cc1 [indisulam]
PPB (fb) [1]: 0.98

CC(C(=O)O)c1ccc(N2Cc3ccccc3C2=O)cc1 (stereo not drawn) [indoprofen]
PPB (fb) [1]: 0.99

CCC(Cc1c(I)cc(I)c(N)c1I)C(=O)O (stereo not drawn) [iopanoic acid]
PPB (fb) [1]: 0.79

CC1=C(/C=C/C(C)=C/C=C/C(C)=C\C(=O)O)C(C)(C)CCC1 [isotretinoin]
PPB (fb) [1]: 0.95

CC(COc1ccccc1)NC(C)C(O)c1ccc(O)cc1 (stereo not drawn) [isoxsuprine]
PPB (fb) [1]: 0

CCC(C)C1OC2(CCC1C)CC1CC(C/C=C(\C)C(OC3CC(OC)C(OC4CC(OC)C(O)C(C)O4)C(C)O3)C(C)/C=C/C=C3\COC4C(O)C(C)=CC(C(=O)O1)C34O)O2 (stereo not drawn) [ivermectin]
PPB (fb) (plasma): 0.93

CC(=O)N1CCN(c2ccc(OCC3COC(Cn4ccnc4)(c4ccc(Cl)cc4Cl)O3)cc2)CC1 (stereo not drawn) [ketoconazole]
PPB (fb) [2]: 0.92

CN1CCC(=C2c3ccccc3CC(=O)c3sccc32)CC1 [ketotifen]
PPB (fb) [1]: 0.8

CCC(OC(C)=O)C(CC(C)N(C)C)(c1ccccc1)c1ccccc1 (stereo not drawn) [laam]
PPB (fb) (plasma): 0.8

Nc1nnc(-c2cccc(Cl)c2Cl)c(N)n1 [lamotrigine]
PPB (fb) [1]: 0.55

Cc1oncc1C(=O)Nc1ccc(C(F)(F)F)cc1 [leflunomide]
PPB (fb) [1]: 0.99

Nc1nc2c(c(=O)[nH]1)N(C=O)C(CNc1ccc(C(=O)N[C@@H](CCC(=O)O)C(=O)O)cc1)CN2 (stereo partly drawn) [leucovorin]
PPB (fb) [1]: 0.91

CC[C@@H](C(N)=O)N1CCCC1=O [levetiracetam]
PPB (fb) [1]: 0.05

C[C@@H]1CN([C@H]2CC[C@](C#N)(c3ccc(F)cc3)CC2)CC[C@]1(C(=O)O)c1ccccc1 [levocabastine]
PPB (fb) [2]: 0.55

CN1CC[C@]23CCCC[C@H]2[C@H]1Cc1ccc(O)cc13 [levorphanol]
PPB (fb) (plasma): 0.4

N[C@@H](Cc1cc(I)c(Oc2ccc(O)c(I)c2)c(I)c1)C(=O)O [liothyronine]
PPB (fb) [1]: 0.98

CCN(CC)C(=O)N[C@H]1C=C2c3cccc4[nH]cc(c34)C[C@H]2N(C)C1 [lisuride]
PPB (fb) (plasma): 0.7

CN(CCCN1c2ccccc2CCc2ccccc21)CC(=O)c1ccc(Cl)cc1 [lofepramine]
PPB (fb) [1]: 0.99

CC(Oc1c(Cl)cccc1Cl)C1=NCCN1 (stereo not drawn) [lofexidine]
PPB (fb) [1]: 0.6

CCn1cc(C(=O)O)c(=O)c2cc(F)c(N3CCNC(C)C3)c(F)c21 (stereo not drawn) [lomefloxacin]
PPB (fb) [2]: 0.12

Cc1cccc(C)c1OCC(=O)N[C@@H](Cc1ccccc1)[C@@H](O)C[C@H](Cc1ccccc1)NC(=O)[C@H](C(C)C)N1CCCNC1=O [lopinavir]
PPB (fb) [2]: 0.99

NC(C(=O)NC1C(=O)N2C(C(=O)O)=C(Cl)CCC12)c1ccccc1 (stereo not drawn) [loracarbef]
PPB (fb) [2]: 0.25

CC(C(=O)O)c1ccc(CC2CCCC2=O)cc1 (stereo not drawn) [loxoprofen]
PPB (fb) [1]: 0.96

C#C[C@]1(O)CC[C@H]2[C@@H]3CCC4=CCCC[C@@H]4[C@H]3CC[C@@]21C [lynestrenol]
PPB (fb) [1]: 0.96

CCN(CC)C(=O)[C@@H]1C=C2c3cccc4[nH]cc(c34)C[C@H]2N(C)C1 [lysergide]
PPB (fb) (plasma): 0.9

CCN(CCCCOC(=O)c1ccc(OC)c(OC)c1)C(C)Cc1ccc(OC)cc1 (stereo not drawn) [mebeverine]
PPB (fb) [1]: 0.75

CN1CCc2c(c3ccccc3n2Cc2ccccc2)C1 [mebhydrolin]
PPB (fb) [1]: 0.04

CN1CCN=C(c2ccccc2)c2cc(Cl)ccc21 [medazepam]
PPB (fb) (plasma): 0.99

Cc1cccc(Nc2ccccc2C(=O)O)c1C [mefenamic acid]
PPB (fb) [1]: 0.99

OC(c1cc(C(F)(F)F)nc2c(C(F)(F)F)cccc12)C1CCCCN1 (stereo not drawn) [mefloquine]
PPB (fb) [1]: 0.97

CN(CC1(C)CCCO1)S(=O)(=O)c1ccc(Cl)c(S(N)(=O)=O)c1 (stereo not drawn) [mefruside]
PPB (fb) [1]: 0.65

CC1CCN(CCCC(=O)c2ccc(F)cc2)CC1 [melperone]
PPB (fb) [1]: 0.5

CCC1(c2ccccc2)NC(=O)N(C)C1=O (stereo not drawn) [mephenytoin]
PPB (fb) [2]: 0.4

Cc1cc2c(OCC(O)CNC(C)C)cccc2[nH]1 (stereo not drawn) [mepindolol]
PPB (fb) [1]: 0.5

COC1C(C)OC(OC2C=C3CCC4C(CCC5(C)C(c6ccc(=O)oc6)CCC45O)C3(C)CC2)C(O)C1O (stereo not drawn) [meproscillarin]
PPB (fb) (plasma): 0.96

c1ccc2c(c1)Sc1ccccc1N2CC1CN2CCC1CC2 (stereo not drawn) [mequitazine]
PPB (fb) [1]: 0.9

Nc1ccc(O)c(C(=O)O)c1 [mesalamine]
PPB (fb) [1]: 0.45

COc1cc(CCN)cc(OC)c1OC [mescaline]
PPB (fb) (plasma): 0.15

C#C[C@]1(O)CC[C@H]2[C@@H]3CCc4cc(OC)ccc4[C@H]3CC[C@@]21C [mestranol]
PPB (fb) [1]: 0.98

CN1C(=O)CC(C)(c2ccccc2)C1=O (stereo not drawn) [mesuximide]
PPB (fb) [1]: 0

CO [methanol]
PPB (fb) (plasma): 0

Cc1ccccc1-n1c(C)nc2ccccc2c1=O [methaqualone]
PPB (fb) (plasma): 0.85

CC(=O)/N=c1/sc(S(N)(=O)=O)nn1C [methazolamide]
PPB (fb) [1]: 0.55
